Values belong to the compound of their own block, whether it stands above or below them.
Experiments:
[1] = system: SCM-1 cells; experiment: Cell viability MTS assay, SCM-1; format: cell-based; conditions: Homo sapiens, 72 hours incubation
Description: (§1) SCM-1, MiaPaca2 and Colo205 cells were grown in RPMI 1640 (Roswell Park Memorial Institute) medium (RPMI; Gibco), supplemented with 10% fetal bovine serum (FBS; Gibco). Detroit551 cells were grown in Dulbecco's modified Eagle's medium (DMEM) supplemented with 10% FBS 50 U/mL of penicillin and streptomycin, and 1% Nonessential amino acids (NEAA; Gibco).
(§2) Zn-DPA conjugates, Zn-DPA-(8), Zn-DPA-(12), Zn-DPA-(25), Zn-DPA-(26), and Zn-DPA-(42) prepared from the corresponding compounds 8, 12, 25, 26, and 42, respectively, were used to inhibit the growth of human cancer cells (SCM-1, Colo205, MiaPaca2) and human embryonic skin fibroblast cells Detroit551 following the procedures described below.
(§3) Cell viability was examined by the MTS assay (Promega, Madison, Wis., USA). More specifically, cells were grown (2500˜3000 cells/well) in a flat bottomed 96-well plate for 24 hours. A medium was added along with a test compound at a pre-determined concentration. The cells were further incubated for 72 hours. At the end of the incubation, the medium was removed and […] with 100 μl of a 3-(4,5-dimethylthiazol-2-yl)-5-(3-carboxymethoxyphenyl)-2-(4-sulfophenyl)-2H-tetrazolium/phenazine methosulfate mixture. The cells were again incubated for 1.5 hours at 37° C. in a humidified incubator with 5% CO2 to allow viable cells to convert the tetrazolium salt into formazan. The conversion was determined by measuring the absorbance at 490 nm using a BioTek PowerWave-X Absorbance Microplate Reader.
(§4) The data obtained were normalized using a vehicle (dimethyl sulfoxide, DMSO)-treated control (100% viability) and a background control (0% viability) to verify growth inhibition. The IC50 value is defined as the concentration of a compound that induces a 50% reduction in cell viability in comparison with a vehicle-treated control. These values were calculated using GraphPad Prism version 4 software (San Diego, Calif., USA).

[2] = system: human embryonic skin fibroblast Detroit 551; experiment: Cell viability MTS assay, Detroit 551; format: cell-based; conditions: 72 hours incubation
Description: as §1, §2, §3, §4

[3] = system: Colo205 cells; experiment: Cell viability MTS assay, Colo205; format: cell-based; conditions: Homo sapiens, COLO 205, 72 hours incubation
Description: as §1, §2, §3, §4

[4] = system: MiaPaca2 cells; experiment: Cell viability MTS assay, MiaPaca2; format: cell-based; conditions: Homo sapiens, MIA PaCa-2, 72 hours incubation
Description: as §1, §2, §3, §4

[5] = format: in vitro ADME; conditions: mouse, plasma; for Stability (percentage remaining), time = 0: 0 h
Description: Plasma Stability of Zn-DPA Conjugates
Zn-DPA conjugates, Zn-DPA-(8), Zn-DPA-(12), Zn-DPA-(25), Zn-DPA-(26), and Zn-DPA-(42) prepared from the corresponding compounds 8, 12, 25, 26, and 42, respectively, were incubated in mouse plasma at 37° C. for up to 24 hours to assess the stability of these conjugates.
A sample was analyzed with a High Performance Liquid Chromatography system to determine the concentration of a test conjugate at one of four time points (i.e., 0, 3 hours, 6 hours, and 24 hours). The percentages of the test conjugate remaining at 3, 6, and 24 hours after incubation in the plasma were determined. A higher percentage indicates greater stability.

[6] = system: Colo205 tumors; experiment: In vivo antitumor assay, Colo205 tumor xenograft mouse model; design: species or system nude mice; conditions: compared to SN-38 at 10 mg/kg and CPT-11 at 40 mg/kg
Description: (§5) Two Zn-DPA conjugates, Zn-DPA-(26) and Zn-DPA-(42) were subjected to an in vivo antitumor assay against Colo205 or MiaPaca2 tumors growing in nude mice following the procedure described below.
(§6) More specifically, Colo205 or MiaPaca2 cells were cultured and maintained in a flask with a RPMI-1640 medium, which was supplemented with 10% FBS. The cells were harvested and innoculated (1×10^6 cells) subcutaneously into the left flank of a adult male nude mouse. Tumor-bearing mice were grouped at the mean tumor volume of approximately 200 mm^3. Tumor dimensions were measured with a digital caliper, and the tumor volume in mm^3 was calculated by the formula: Volume=(length×width^^2)/2.
(§7) The mice were housed in sterilized cages equipped with an air filter and sterile bedding materials at the Laboratory Animal Center of National Health Research Institutes. All mice were fed with sterilized water and chow at libitum under 12-hour light/12-hour dark cycle throughout the study.
(§8) Several dosages of Zn-DPA-(26) and Zn-DPA-(42), were used in this assay, i.e., 40 mg/kg, 20 mg/kg, and 10 mg/kg, p<0.05 vs. vehicle control by one-way ANOVA analysis and the Newman-Keuls multiple comparison test. […]

[7] = system: MiaPaca2 tumors; experiment: In vivo antitumor assay, MiaPaca2 tumor xenograft mouse model; design: species or system nude mice; conditions: i.v., 40, 20 and 10 mg/kg, compared to SN-38 at 10 mg/kg and CPT-11 at 40 mg/kg
Description: as §5, §6, §7, §8

IC50 [3]: > 10000 nM
IC50 [4]: 3600 nM
SMILES: CCc1c2c(nc3ccc(OC(=O)N4CCC(N5CCCCC5)CC4)cc13)-c1cc3c(c(=O)n1C2)COC(=O)[C@]3(O)CC [CPT-11, reference compound]
IC50 [1]: > 10000 nM
IC50 [2]: > 10000 nM

IC50 [3]: 140 nM
IC50 [4]: 20 nM
SMILES: CCc1c2c(nc3ccc(O)cc13)-c1cc3c(c(=O)n1C2)COC(=O)[C@]3(O)CC [SN-38, reference compound]
IC50 [1]: 640 nM
IC50 [2]: 4000 nM

SMILES: CCc1c2c(nc3ccc(OC(=O)c4cccc(NC(=O)NCCCCOc5cc(CN(Cc6ccccn6)Cc6ccccn6)cc(CN(Cc6ccccn6)Cc6ccccn6)c5)c4)cc13)-c1cc3c(c(=O)n1C2)COC(=O)[C@@]3(O)CC [Zn-DPA-(8)]
IC50 [1]: 640 nM
Stability (percentage remaining), time = 0 [5]: 100%
Stability (percentage remaining), time = 3 hr [5]: 90%
Stability (percentage remaining), time = 6 hr [5]: 82%
IC50 [2]: 9300 nM
IC50 [3]: 420 nM

SMILES: CCc1c2c(nc3ccc(OC(=O)CCSC4CC(=O)N(Cc5ccc(C(=O)NCCCCOc6cc(CN(Cc7ccccn7)Cc7ccccn7)cc(CN(Cc7ccccn7)Cc7ccccn7)c6)cc5)C4=O)cc13)-c1cc3c(c(=O)n1C2)COC(=O)[C@]3(O)CC (stereo partly drawn) [Zn-DPA-(12)]
IC50 [1]: 940 nM
Stability (percentage remaining), time = 0 [5]: 100%
Stability (percentage remaining), time = 3 hr [5]: 84%
Stability (percentage remaining), time = 6 hr [5]: 76%
IC50 [2]: 2900 nM
IC50 [3]: 120 nM

SMILES: CCc1c2c(nc3ccc(OC(=O)c4ccc(CN(CCCCOc5cc(CN(Cc6ccccn6)Cc6ccccn6)cc(CN(Cc6ccccn6)Cc6ccccn6)c5)C(=O)c5c(-c6ccccc6Cl)noc5C)cc4)cc13)-c1cc3c(c(=O)n1C2)COC(=O)[C@]3(O)CC [Zn-DPA-(25)]
IC50 [1]: 1000 nM
Stability (percentage remaining), time = 0 [5]: 100%
Stability (percentage remaining), time = 3 hr [5]: 90%
Stability (percentage remaining), time = 6 hr [5]: 85%
IC50 [2]: 7200 nM
IC50 [3]: 580 nM

SMILES: CCc1c2c(nc3ccc(OC(=O)c4ccc(CN(CCCCOc5cc(CN(Cc6ccccn6)Cc6ccccn6)cc(CN(Cc6ccccn6)Cc6ccccn6)c5)C(=O)C5(c6ccc(Cl)cc6)CCCCC5)cc4)cc13)-c1cc3c(c(=O)n1C2)COC(=O)[C@]3(O)CC [Zn-DPA-(26)]
IC50 [1]: 2600 nM
antitumor activity ([6]; i.v., dosages of 10 mg/kg and 40 mg/kg): much higher antitumor activities
Stability (percentage remaining), time = 0 [5]: 100%
Stability (percentage remaining), time = 3 hr [5]: 99%
Stability (percentage remaining), time = 6 hr [5]: 97%
IC50 [2]: > 10000 nM
IC50 [3]: 1100 nM
IC50 [4]: 120 nM

SMILES: CCc1c2c(nc3ccc(OC(=O)c4ccc(CN(CCOCCOCCNC(=O)c5ccc(CN(CCCCOc6cc(CN(Cc7ccccn7)Cc7ccccn7)cc(CN(Cc7ccccn7)Cc7ccccn7)c6)C(=O)C6(c7ccc(Cl)cc7)CCCCC6)cc5)C(=O)C5(c6ccc(Cl)cc6)CCCCC5)cc4)cc13)-c1cc3c(c(=O)n1C2)COC(=O)[C@]3(O)CC [Zn-DPA-(42)]
antitumor activity ([6]; i.v., 40, 20 and 10 mg/kg): antitumor activities in a dose-dependent manner and much higher antitumor activities
Stability (percentage remaining), time = 0 [5]: 100%
Stability (percentage remaining), time = 3 hr [5]: 99%
Stability (percentage remaining), time = 6 hr [5]: 98%
antitumor activity [7]: antitumor activities in a dose-dependent manner and much higher antitumor activities
IC50 [2]: > 10000 nM
IC50 [3]: 3700 nM
IC50 [4]: 550 nM
